One compound from patent US8067189B2, “Methods for determining sensitivity to vascular endothelial growth factor receptor-2 modulators by measuring the level of collagen type IV” (Bristol-Myers Squibb Company, priority 2005, dated 2011) can be followed below.

Each structure is given as a SMILES string.

For test [1], the system named is Collagen type IV. The test can be described thus: ELISA of blood samples from tumor bearing mice. The test is classed as in vivo, mouse. The conditions noted are these: 100 mg/kg 1 qd×14 days. How it is done: (§1) Tumors were propagated in nude mice as subcutaneous (sc) transplants using L2987 and HCT-116 cancer cell lines. Tumor passage occurred approximately every two to four weeks. Tumors were then allowed to grow to the pre-determined size window (100-200 mm^3, tumors outside the range were excluded) and animals were evenly distributed to various treatment and control groups. Animals were treated with the example VEGFR-2 inhibitor (100 mg/kg 1 qd×14 days). Treated animals were checked daily for treatment related toxicity/mortality. Each group of animals was weighed before the initiation of treatment (Wt1) and then again following the last treatment dose (Wt2). […] Tumor response was determined by measurement of tumors with a caliper twice a week, until the tumors reached a predetermined target size. […]
(§2) An ELISA method for the detection and measurement of Collagen Type IV and VE-Cadherin on human plasma or any biological sample where the proteins must be detected and measured is described. […] The reaction was terminated by addition of acid and absorbance was measured at 450 nm. A standard curve was prepared from collagen type IV standard dilutions and collagen type IV samples concentration determined. […] The reaction was terminated by addition of acid and absorbance was measured at 450 nm. A standard curve was prepared from VE-cadherin standard dilutions and VE-cadherin samples concentration determined. […]

Another test relates to VE-Cadherin. The test can be described thus: ELISA of blood samples from tumor bearing mice. In kind it is in vivo, mouse. The conditions noted are these: 100 mg/kg 1 qd×14 days. The procedure: as §1, §2
Test [2] relates to Collagen type IV. The test is described as follows: Collagen type IV ELISA of blood (plasma) from cancer patients, clinical study CA182-002. The test is classed as in vivo, human. How it is done:
(§3) Blood samples (plasma) for ELISA analysis were obtained from Bristol-Myers Squibb Co. sponsored clinical study CA182-002, which is a phase I dose escalation study to determine the safety, pharmacokinetic, and pharmacodynamics of the example VEGFR-2 inhibitor in patients with advanced or metastatic solid tumors. Blood samples were drawn from patients at screening, pre-dose, and post-dose at 4 hours, Day 1, Day 8, Day 26, and end of treatment. Approximately 60 ml of blood was collected for the protocol specific sampling. Detailed instructions regarding the collection, processing, labeling, handling, storage, and shipment of the specimens were provided in the CA182-002 Laboratory Manual.
An ELISA method for the detection and measurement of Collagen Type IV and VE-Cadherin on human plasma or any biological sample where the proteins must be detected and measured is described. For collagen type IV ELISA, the kit was provided by Kamiya biomedical company (cat no. KT-035) and the principle method of the assay, a solid phase one-step sandwich ELISA, was as follows. Collagen Type IV in the sample was bound simultaneously by a solid phase monoclonal antibody and a monoclonal antibody-enzyme conjugate, each directed at a different antigenic site. […] After removing unbound enzyme-labeled antibody and samples, the plate was incubated with the enzyme substrate 3,3′,5,5′-tetramethylhylbenzidine (TMB). The resultant color development was directly proportional to the amount of collagen IV in the sample. The reaction was terminated by addition of acid and absorbance was measured at 450 nm. A standard curve was prepared from collagen type IV standard dilutions and collagen type IV samples concentration determined. For VE-Cadherin ELISA, the kit provided by Bender Medsystems (cat no. BMS253) was used and the principle method of the assay was as follows. An anti-VE-cadherin coating antibody was adsorbed onto the microwells. VE-cadherin present in the sample bound to antibodies adsorbed to the microwells; a biotin conjugated anti-VE-cadherin antibody was added and bound to VE-cadherin captured by the first antibody. Following incubation, unbound biotin conjugated anti-VE-cadherin was removed during a wash step. Streptavidin-HRP was added and bound to the biotin conjugated anti-VE-cadherin. Following incubation, unbound streptavidin-HRP was removed during a wash step and substrate solution reactive with HRP was added to the wells. A colored product was formed in proportion to the amount of VE-cadherin present in the sample. The reaction was terminated by addition of acid and absorbance was measured at 450 nm. A standard curve was prepared from VE-cadherin standard dilutions and VE-cadherin samples concentration determined.
Based on the pre-clinical studies, the Collagen type IV ELISA kit was examined as a potential molecular assay to monitor response and validate its expression on specimens obtained from cancer patients who received the example VEGFR-2 inhibitor. Biological samples from twelve cancer patients treated with the example VEGFR-2 inhibitor in protocol CA182002, which is a single agent dose escalation study, three patients each at 180 mg/day, 320 mg/day, 600 mg/day and 800 mg/day, were examined. Collagen Type IV blood levels were determined by an ELISA based assay for each patient at Day 0 (before therapy) and at Day 26 (after treatment). Collagen type IV levels increased on average by 24% at Day 26 in the 180 mg/day cohort; it increased on average only by 7% at Day 26 in the 320 mg/day cohort. In the 600 mg/day cohort, it was reduced on average by 26% at Day 26. In the 800 mg/day cohort, it was reduced only marginally, when compared to the 600 mg/day cohort, by 29% at Day 26.
Collagen type IV ELISA assays were also examined to see if collagen type IV was useful as a biomarker for clinical response to the example VEGFR-2 inhibitor. […] The reduction in collagen type IV blood levels correlated with clinical evidence of anti-tumor activity. […]

Test [3] relates to advanced or metastatic solid tumors. The test is described as follows: Clinical response in phase I dose escalation study CA182-002. To be noted: 600 mg/day. The test is classed as in vivo, human. The procedure: as §3
Collagen type IV ELISA assays were also examined to see if collagen type IV was useful as a biomarker for clinical response to the example VEGFR-2 inhibitor. […] The reduction in collagen type IV blood levels correlated with clinical evidence of anti-tumor activity. […] Overall, the clinical results from these two evaluable patients confirm the pre-clinical data and indicate that collagen type IV ELISA assay is a clinically useful method to monitor response to a VEGFR-2 modulator(s) such as the example VEGFR-2 inhibitor.

`Cc1cc2c(F)c(Oc3ncnn4cc(OC[C@@H](C)OC(=O)[C@H](C)N)c(C)c34)ccc2[nH]1` [example VEGFR-2 inhibitor, [(1R),2S]-2-Aminopropionic acid 2-[4-(4-fluoro-2-methyl-1H-indol-5-yloxy)-5-methylpyrrolo[2,1-f][1,2,4]triazin-6-yloxy]-1-methylethyl ester]: the “amount of Collagen type IV protein detected in the blood following treatment” value with Collagen type IV [1] is listed as “decreased to levels observed in the healthy mice bearing no tumors”. Moreover, the “amount of VE-Cadherin protein detected in the blood following treatment” value in the test on VE-Cadherin was “decreased to levels observed in the healthy mice bearing no tumors”. Further, the “Collagen type IV levels increased on average by” value is recorded as 24% in the test with Collagen type IV [2] (180 mg/day cohort, three patients, Day 26 vs Day 0) and 7% in the test with Collagen type IV [2] (320 mg/day cohort, three patients, Day 26 vs Day 0). The “Collagen type IV levels reduced on average by” value with Collagen type IV [2] (600 mg/day cohort, three patients, Day 26 vs Day 0) is 26%. Also, in the test on Collagen type IV [2] (800 mg/day cohort, three patients, Day 26 vs Day 0), the “Collagen type IV levels reduced by” value is listed as 29%. Moreover, the “reduction in collagen type IV levels” value in the test on Collagen type IV [2] (another patient, 600 mg/day, between Day 0 and Day 26, P=0.632) is recorded as “no significant reduction”. Also, the “collagen type IV blood levels reduced” value in the test with Collagen type IV [2] (one patient with ampulla of vater carcinoma, 600 mg/day, between Day 0 and Day 26, P=0.006) is given as > 50%. Also, the clinical response result is listed as “did not achieve a clinical response” in test [3] (another patient) and “partial response” in test [3] (one patient with ampulla of vater carcinoma). Besides, the “time patient was on therapy” value in test [3] (another patient, no clinical response) came out at 32 days. In addition, in test [3] (one patient with ampulla of vater carcinoma, partial response), the “time patient remained on therapy” value stood at 126 days.
